Activity calls are given as the source filed them. The calls are words filed in the database; no cut-off is given here.

For assay [1], the target named is Beta-2 adrenergic receptor (Homo sapiens) (UniProt P07550). Put plainly: Binding affinity to GST tagged human beta 2 adrenergic receptor PDZ1 domain upto 300 uM.
The target of assay [2] is Cystic fibrosis transmembrane conductance regulator (Homo sapiens) (UniProt P13569). Put plainly: Binding affinity to GST tagged human CFTR PDZ2 domain upto 300 uM.
Chain of Cystic fibrosis transmembrane conductance regulator (Homo sapiens) (P13569 whole entry, looked up, the tested form may be a part): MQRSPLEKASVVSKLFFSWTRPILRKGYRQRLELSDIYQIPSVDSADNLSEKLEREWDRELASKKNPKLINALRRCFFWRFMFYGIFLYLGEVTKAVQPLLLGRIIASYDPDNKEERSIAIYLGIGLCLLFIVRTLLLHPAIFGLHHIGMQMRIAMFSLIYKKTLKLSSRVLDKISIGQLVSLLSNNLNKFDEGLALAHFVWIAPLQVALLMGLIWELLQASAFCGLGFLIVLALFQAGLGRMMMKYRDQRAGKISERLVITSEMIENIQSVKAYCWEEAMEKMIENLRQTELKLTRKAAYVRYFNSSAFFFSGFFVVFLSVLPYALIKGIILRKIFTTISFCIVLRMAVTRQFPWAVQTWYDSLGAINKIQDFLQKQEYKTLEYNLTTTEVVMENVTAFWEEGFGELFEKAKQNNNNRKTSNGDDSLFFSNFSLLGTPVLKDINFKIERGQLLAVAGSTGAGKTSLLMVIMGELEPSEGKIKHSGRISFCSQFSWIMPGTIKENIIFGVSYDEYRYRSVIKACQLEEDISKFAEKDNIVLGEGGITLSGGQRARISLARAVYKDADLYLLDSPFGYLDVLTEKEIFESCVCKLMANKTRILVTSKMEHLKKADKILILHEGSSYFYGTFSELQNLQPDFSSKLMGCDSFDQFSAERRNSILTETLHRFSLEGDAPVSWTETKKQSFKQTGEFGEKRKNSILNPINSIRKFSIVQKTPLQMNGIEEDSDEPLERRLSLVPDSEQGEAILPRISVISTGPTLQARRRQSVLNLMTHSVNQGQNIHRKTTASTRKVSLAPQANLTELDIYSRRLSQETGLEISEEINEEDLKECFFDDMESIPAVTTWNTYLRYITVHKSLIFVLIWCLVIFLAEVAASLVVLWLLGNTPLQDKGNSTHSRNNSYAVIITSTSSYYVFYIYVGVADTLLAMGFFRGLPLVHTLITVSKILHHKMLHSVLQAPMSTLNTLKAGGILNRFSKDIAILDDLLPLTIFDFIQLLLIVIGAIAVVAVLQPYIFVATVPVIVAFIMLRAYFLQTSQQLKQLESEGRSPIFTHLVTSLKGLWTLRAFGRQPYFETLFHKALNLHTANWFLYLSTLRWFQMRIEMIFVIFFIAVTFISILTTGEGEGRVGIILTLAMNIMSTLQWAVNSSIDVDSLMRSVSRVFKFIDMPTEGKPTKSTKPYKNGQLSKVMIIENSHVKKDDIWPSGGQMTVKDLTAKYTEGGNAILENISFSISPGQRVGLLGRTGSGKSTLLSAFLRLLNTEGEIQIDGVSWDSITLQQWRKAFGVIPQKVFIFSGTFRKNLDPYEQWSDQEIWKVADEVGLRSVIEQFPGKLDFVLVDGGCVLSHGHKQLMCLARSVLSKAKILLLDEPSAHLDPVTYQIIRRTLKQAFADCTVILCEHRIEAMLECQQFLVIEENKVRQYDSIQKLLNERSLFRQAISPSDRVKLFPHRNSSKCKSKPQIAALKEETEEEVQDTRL

Chain of Beta-2 adrenergic receptor (Homo sapiens) (P07550 whole entry, looked up, the tested form may be a part): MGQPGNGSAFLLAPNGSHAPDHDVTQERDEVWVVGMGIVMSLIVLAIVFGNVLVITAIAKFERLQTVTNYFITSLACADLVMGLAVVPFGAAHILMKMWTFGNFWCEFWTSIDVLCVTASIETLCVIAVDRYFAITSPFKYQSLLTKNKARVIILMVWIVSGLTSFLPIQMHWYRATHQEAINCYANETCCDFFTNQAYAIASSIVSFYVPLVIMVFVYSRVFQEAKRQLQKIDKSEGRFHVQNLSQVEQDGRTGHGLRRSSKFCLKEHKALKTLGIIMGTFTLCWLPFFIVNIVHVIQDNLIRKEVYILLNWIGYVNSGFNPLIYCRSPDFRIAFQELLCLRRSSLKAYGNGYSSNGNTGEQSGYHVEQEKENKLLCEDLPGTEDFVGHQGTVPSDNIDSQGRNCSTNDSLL

On to `CCCNC(=O)c1[nH]c2cc(C)c(C(=O)O)cc2c1CCc1ccccc1`, for which the result in assay [1] and in assay [2] was inactive.

These data come from ChEMBL document CHEMBL1141464, “Rational design of the first small-molecule antagonists of NHERF1/EBP50 PDZ domains” (Bioorg Med Chem Lett, 2008).
